Source: BindingDB's records for doi:10.1016/s0960-894x(98)00290-x (3-Dimensional Pharmaceuticals, 1999)

What was measured:
[1] = Compound was tested in vitro for its ability to inhibit serine protease chymotrypsin using suc-Ala-Ala-Pro-Phe-p-nitroanilide as substrate
[2] = Compound was tested in vitro for its ability to inhibit serine protease trypsin using benzoyl-Phe-Val-Arg-p-nitroanilide as substrate

Ki [1]: > 200 µM
Ki [2]: 23 µM
SMILES: Cc1cc(OCCCNC(=N)N)cc(OS(=O)(=O)c2ccccc2Cl)c1 [2-Chloro-benzenesulfonic acid 3-(3-guanidino-propoxy)-5-methyl-phenyl ester]
